Format in all cases: cell-based
The target of assay [1] is T1, TYK2 (Homo sapiens, UniProt P29597). Put plainly: TYK2 degradation MSD assay in human PBMC cells. More on the design: endogenous in cells; host or cells: human PBMC. Conditions: 4 to 24 hours incubation, read-out: TYK2 MSD DC50 rating in human PBMC. The gist of the method: (§1)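 0.4 million cells/well; cpd 9-dose 1:3 titration, top 1–10 μM; 4–24 h, 37° C, 5% CO2; RIPA lysis; TYK2 capture/detection sandwich on MSD, SULFO-TAG anti-rabbit secondary; DC50 via 4-parameter fit.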

Assay [2] addresses T1, TYK2. As to the kind of experiment: TYK2 degradation MSD assay in OCI-LY10 cells. Set-up: endogenous in cells; host or cells: EBV-B cells. The note with it: 4 to 24 hours incubation, read-out: TYK2 MSD DC50 rating in OCI-LY10. The gist of the method:
as §1

Assay [3] deals with T1, TYK2. As to the kind of experiment: TYK2 degradation MSD assay in EBV-B cells. Set-up: endogenous in cells; host or cells: EBV-B cells. Conditions: 4 to 24 hours incubation, read-out: TYK2 MSD DC50 rating in EBV-B. Summed up:
as §1

A value given as a limit tells only on which side of the number the result lay.

T1 sequence (P29597 whole entry): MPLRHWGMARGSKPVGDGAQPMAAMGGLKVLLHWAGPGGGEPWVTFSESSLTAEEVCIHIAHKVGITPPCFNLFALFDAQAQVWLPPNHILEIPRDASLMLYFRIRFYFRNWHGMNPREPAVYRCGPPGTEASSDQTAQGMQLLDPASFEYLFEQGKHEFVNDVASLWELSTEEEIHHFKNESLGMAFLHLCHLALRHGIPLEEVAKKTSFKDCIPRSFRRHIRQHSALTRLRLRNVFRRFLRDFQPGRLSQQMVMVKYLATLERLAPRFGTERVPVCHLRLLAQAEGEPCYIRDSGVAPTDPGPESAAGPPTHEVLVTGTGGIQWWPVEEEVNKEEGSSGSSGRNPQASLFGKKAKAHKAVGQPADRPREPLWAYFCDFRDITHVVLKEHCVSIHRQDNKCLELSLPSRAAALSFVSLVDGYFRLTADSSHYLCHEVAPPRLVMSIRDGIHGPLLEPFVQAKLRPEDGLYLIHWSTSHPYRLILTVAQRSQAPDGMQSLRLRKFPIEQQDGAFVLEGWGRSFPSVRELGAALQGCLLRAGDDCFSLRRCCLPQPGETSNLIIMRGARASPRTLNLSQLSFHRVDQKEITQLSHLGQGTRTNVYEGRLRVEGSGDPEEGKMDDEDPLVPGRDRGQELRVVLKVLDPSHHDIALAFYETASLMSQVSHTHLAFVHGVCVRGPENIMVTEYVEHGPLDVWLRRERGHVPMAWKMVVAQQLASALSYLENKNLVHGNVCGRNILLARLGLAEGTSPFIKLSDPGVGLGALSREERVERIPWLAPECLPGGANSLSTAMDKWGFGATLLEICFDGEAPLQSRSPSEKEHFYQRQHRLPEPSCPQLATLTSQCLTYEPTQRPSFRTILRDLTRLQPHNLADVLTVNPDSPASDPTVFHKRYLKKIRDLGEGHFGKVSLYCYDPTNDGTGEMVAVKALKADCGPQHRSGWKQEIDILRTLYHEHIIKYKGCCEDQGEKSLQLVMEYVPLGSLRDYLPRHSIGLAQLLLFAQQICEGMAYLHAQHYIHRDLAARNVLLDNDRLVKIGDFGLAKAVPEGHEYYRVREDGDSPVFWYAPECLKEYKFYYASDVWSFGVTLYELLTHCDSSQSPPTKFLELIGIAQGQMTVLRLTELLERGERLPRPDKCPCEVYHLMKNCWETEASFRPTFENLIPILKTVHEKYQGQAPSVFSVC

For `CNc1cc(Nc2cccn(-c3ccc(C(=O)NCCOCCOCCOCCOCCc4cccc5c4n(C)c(=O)n5C4CCC(=O)NC4=O)cn3)c2=O)nn2c(C(=O)N[C@@H]3C[C@@H]3F)cnc12` (stereo partly drawn) [Example K218], the DC50 in assay [1] was 10 to 100 nM; in assay [2], greater than 100 nM; in assay [3], greater than 100 nM.

On to `CNc1cc(Nc2cccn(-c3cccc(C(=O)NCCCCc4ccc5c(c4)n(C)c(=O)n5C4CCC(=O)NC4=O)c3)c2=O)nn2c(C(=O)N[C@@H]3C[C@@H]3F)cnc12` (stereo partly drawn) [Example K219], for which the DC50 was 1 to 10 nM in assay [1], greater than 100 nM in assay [2] and greater than 100 nM in assay [3].

Take `CNc1cc(Nc2cccn(-c3cccc(C(=O)NCCCCc4cccc5c4n(C)c(=O)n5C4CCC(=O)NC4=O)c3)c2=O)nn2c(C(=O)N[C@@H]3C[C@@H]3F)cnc12` (stereo partly drawn) [Example K220]: the DC50 in assay [1], in assay [2] and in assay [3] was greater than 100 nM each time.

For the compound `CNc1cc(Nc2cccn(-c3cccc(C(=O)NCCCCCCc4ccc5c(c4)n(C)c(=O)n5C4CCC(=O)NC4=O)c3)c2=O)nn2c(C(=O)N[C@@H]3C[C@@H]3F)cnc12` (stereo partly drawn) [Example K221], the DC50 in assay [1], in assay [2] and in assay [3] was greater than 100 nM in each case.

`CNc1cc(Nc2cccn(-c3cccc(C(=O)NCCCCCCc4cccc5c4n(C)c(=O)n5C4CCC(=O)NC4=O)c3)c2=O)nn2c(C(=O)N[C@@H]3C[C@@H]3F)cnc12` (stereo partly drawn) [Example K222]: the values for the DC50 in assay [1], in assay [2] and in assay [3] were 1 to 10 nM, greater than 100 nM and greater than 100 nM, respectively.

As to `CNc1cc(Nc2cccn(-c3cccc(C(=O)NCCCCCCCCc4ccc5c(c4)n(C)c(=O)n5C4CCC(=O)NC4=O)c3)c2=O)nn2c(C(=O)N[C@@H]3C[C@@H]3F)cnc12` (stereo partly drawn) [Example K223], the DC50 in assay [1] was 1 to 10 nM; in assay [2], greater than 100 nM; in assay [3], greater than 100 nM.

For `CNc1cc(Nc2cccn(-c3cccc(C(=O)NCCCCCCCCc4cccc5c4n(C)c(=O)n5C4CCC(=O)NC4=O)c3)c2=O)nn2c(C(=O)N[C@@H]3C[C@@H]3F)cnc12` (stereo partly drawn) [Example K224], the DC50 in assay [1] is 10 to 100 nM; in assay [2] it was greater than 100 nM; in assay [3] it was greater than 100 nM.

As for `CNc1cc(Nc2cccn(-c3cccc(C(=O)NCCCCCCCCCCc4ccc5c(c4)n(C)c(=O)n5C4CCC(=O)NC4=O)c3)c2=O)nn2c(C(=O)N[C@@H]3C[C@@H]3F)cnc12` (stereo partly drawn) [Example K225], the DC50 in assay [1] was 1 to 10 nM; in assay [2] it was greater than 100 nM; in assay [3] it was greater than 100 nM.

With `CNc1cc(Nc2cccn(-c3cccc(C(=O)NCCCCCCCCCCc4cccc5c4n(C)c(=O)n5C4CCC(=O)NC4=O)c3)c2=O)nn2c(C(=O)N[C@@H]3C[C@@H]3F)cnc12` (stereo partly drawn) [Example K226], the 50% degradation concentration (DC50) in assay [1] was 10 to 100 nM; in assay [2], greater than 100 nM; in assay [3], greater than 100 nM.

In the case of `CNc1cc(Nc2cccn(-c3cccc(C(=O)NCCCCc4ccc5c(c4)n(C)c(=O)n5C4CCC(=O)NC4=O)c3)c2=O)nn2c(C(=O)N[C@@H]3C[C@@H]3F)cnc12` (stereo partly drawn) [Example K227], the DC50 in assay [1], in assay [2] and in assay [3] was greater than 100 nM in each case.

As to `CNc1cc(Nc2cccn(-c3cc(C(=O)NCCCCc4cccc5c4n(C)c(=O)n5C4CCC(=O)NC4=O)ccn3)c2=O)nn2c(C(=O)N[C@@H]3C[C@@H]3F)cnc12` (stereo partly drawn) [Example K228], the values for the DC50 in assay [1], in assay [2] and in assay [3] were 1 to 10 nM, greater than 100 nM and greater than 100 nM, respectively.

Turning to `CNc1cc(Nc2cccn(-c3cc(C(=O)NCCCCCCc4ccc5c(c4)n(C)c(=O)n5C4CCC(=O)NC4=O)ccn3)c2=O)nn2c(C(=O)N[C@@H]3C[C@@H]3F)cnc12` (stereo partly drawn) [Example K229], the DC50 in assay [1] is less than 1 nM; in assay [2], greater than 100 nM; in assay [3] it was greater than 100 nM.

For the compound `CNc1cc(Nc2cccn(-c3cc(C(=O)NCCCCCCc4cccc5c4n(C)c(=O)n5C4CCC(=O)NC4=O)ccn3)c2=O)nn2c(C(=O)N[C@@H]3C[C@@H]3F)cnc12` (stereo partly drawn) [Example K230], the DC50 in assay [1] is 1 to 10 nM; in assay [2], greater than 100 nM; in assay [3], greater than 100 nM.

Turning to `CNc1cc(Nc2cccn(-c3cc(C(=O)NCCCCCCCCc4ccc5c(c4)n(C)c(=O)n5C4CCC(=O)NC4=O)ccn3)c2=O)nn2c(C(=O)N[C@@H]3C[C@@H]3F)cnc12` (stereo partly drawn) [Example K231], the DC50 in assay [1] is less than 1 nM; in assay [2], greater than 100 nM; in assay [3], greater than 100 nM.

On to `CNc1cc(Nc2cccn(-c3cc(C(=O)NCCCCCCCCc4cccc5c4n(C)c(=O)n5C4CCC(=O)NC4=O)ccn3)c2=O)nn2c(C(=O)N[C@@H]3C[C@@H]3F)cnc12` (stereo partly drawn) [Example K232], for which the DC50 in assay [1] was 1 to 10 nM; in assay [2], greater than 100 nM; in assay [3] it was greater than 100 nM.

For the compound `CNc1cc(Nc2cccn(-c3cc(C(=O)NCCCCCCCCCCc4ccc5c(c4)n(C)c(=O)n5C4CCC(=O)NC4=O)ccn3)c2=O)nn2c(C(=O)N[C@@H]3C[C@@H]3F)cnc12` (stereo partly drawn) [Example K233], the DC50 in assay [1] is 1 to 10 nM; in assay [2], greater than 100 nM; in assay [3], 1 to 10 nM.

Regarding `CNc1cc(Nc2cccn(-c3cc(C(=O)NCCCCCCCCCCc4cccc5c4n(C)c(=O)n5C4CCC(=O)NC4=O)ccn3)c2=O)nn2c(C(=O)N[C@@H]3C[C@@H]3F)cnc12` (stereo partly drawn) [Example K234], the DC50 in assay [1], in assay [2] and in assay [3] was greater than 100 nM in each case.

For the compound `CNc1cc(Nc2cccn(-c3cccc(C(=O)NCCOCCOCCc4ccc5c(c4)n(C)c(=O)n5C4CCC(=O)NC4=O)c3)c2=O)nn2c(C(=O)N[C@@H]3C[C@@H]3F)cnc12` (stereo partly drawn) [Example K235], the DC50 was 1 to 10 nM in assay [1], greater than 100 nM in assay [2] and greater than 100 nM in assay [3].

As for `CNc1cc(Nc2cccn(-c3cccc(C(=O)NCCOCCOCCc4cccc5c4n(C)c(=O)n5C4CCC(=O)NC4=O)c3)c2=O)nn2c(C(=O)N[C@@H]3C[C@@H]3F)cnc12` (stereo partly drawn) [Example K236], the 50% degradation concentration (DC50) in assay [1] was 1 to 10 nM; in assay [2], greater than 100 nM; in assay [3] it was greater than 100 nM.

On to `CNc1cc(Nc2cccn(-c3cc(C(=O)NCCOCCOCCc4ccc5c(c4)n(C)c(=O)n5C4CCC(=O)NC4=O)ccn3)c2=O)nn2c(C(=O)N[C@@H]3C[C@@H]3F)cnc12` (stereo partly drawn) [Example K237], for which the DC50 in assay [1], in assay [2] and in assay [3] was greater than 100 nM in each case.

On to `CNc1cc(Nc2cccn(-c3cc(C(=O)NCCOCCOCCc4cccc5c4n(C)c(=O)n5C4CCC(=O)NC4=O)ccn3)c2=O)nn2c(C(=O)N[C@@H]3C[C@@H]3F)cnc12` (stereo partly drawn) [Example K238], for which the DC50 in assay [1], in assay [2] and in assay [3] was greater than 100 nM throughout.

As to `CNc1cc(Nc2cccn(-c3cccc(C(=O)NCCOCCOCCOCCOCCc4ccc5c(c4)n(C)c(=O)n5C4CCC(=O)NC4=O)c3)c2=O)nn2c(C(=O)N[C@@H]3C[C@@H]3F)cnc12` (stereo partly drawn) [Example K239], the DC50 in assay [1], in assay [2] and in assay [3] was greater than 100 nM throughout.

`CNc1cc(Nc2cccn(-c3cccc(C(=O)NCCOCCOCCOCCOCCc4cccc5c4n(C)c(=O)n5C4CCC(=O)NC4=O)c3)c2=O)nn2c(C(=O)N[C@@H]3C[C@@H]3F)cnc12` (stereo partly drawn) [Example K240]: the DC50 in assay [1], in assay [2] and in assay [3] was greater than 100 nM each time.

On to `CNc1cc(Nc2cccn(-c3cc(C(=O)NCCOCCOCCOCCOCCc4ccc5c(c4)n(C)c(=O)n5C4CCC(=O)NC4=O)ccn3)c2=O)nn2c(C(=O)N[C@@H]3C[C@@H]3F)cnc12` (stereo partly drawn) [Example K241], for which the DC50 in assay [1], in assay [2] and in assay [3] was greater than 100 nM in each case.

As to `CNc1cc(Nc2cccn(-c3cc(C(=O)NCCOCCOCCOCCOCCc4cccc5c4n(C)c(=O)n5C4CCC(=O)NC4=O)ccn3)c2=O)nn2c(C(=O)N[C@@H]3C[C@@H]3F)cnc12` (stereo partly drawn) [Example K242], the DC50 in assay [1], in assay [2] and in assay [3] was greater than 100 nM throughout.

`CNc1cc(Nc2cccn(-c3cccc(C(=O)NCCOCCOCCOCCOCCOCCOCCc4ccc5c(c4)n(C)c(=O)n5C4CCC(=O)NC4=O)c3)c2=O)nn2c(C(=O)N[C@@H]3C[C@@H]3F)cnc12` (stereo partly drawn) [Example K243]: the DC50 in assay [1], in assay [2] and in assay [3] was greater than 100 nM each time.

For the compound `CNc1cc(Nc2cccn(-c3cc(C(=O)NCCOCCOCCOCCOCCOCCOCCc4cccc5c4n(C)c(=O)n5C4CCC(=O)NC4=O)ccn3)c2=O)nn2c(C(=O)N[C@@H]3C[C@@H]3F)cnc12` (stereo partly drawn) [Example K244], the DC50 in assay [1], in assay [2] and in assay [3] was greater than 100 nM in each case.

As for `CNc1cc(Nc2cccn(-c3cc(C(=O)NCCOCCOCCOCCOCCOCCOCCc4ccc5c(c4)n(C)c(=O)n5C4CCC(=O)NC4=O)ccn3)c2=O)nn2c(C(=O)N[C@@H]3C[C@@H]3F)cnc12` (stereo partly drawn) [Example K245], the DC50 in assay [1], in assay [2] and in assay [3] was greater than 100 nM throughout.

As to `CNc1cc(Nc2cccc(C(=O)NCCCCc3ccc4c(c3)n(C)c(=O)n4C3CCC(=O)NC3=O)c2)nn2c(C(=O)N[C@@H]3C[C@@H]3F)cnc12` (stereo partly drawn) [Example K247], the DC50 in assay [1], in assay [2] and in assay [3] was greater than 100 nM each time.

For the compound `CNc1cc(Nc2cccc(C(=O)NCCCCc3cccc4c3n(C)c(=O)n4C3CCC(=O)NC3=O)c2)nn2c(C(=O)N[C@@H]3C[C@@H]3F)cnc12` (stereo partly drawn) [Example K248], the half-maximal degradation concentration (DC50) in assay [1], in assay [2] and in assay [3] was greater than 100 nM in each case.

In general, DC50 refers to the concentration giving 50% degradation.
